{"source": "paper PMC5667506", "about": "“Potent and selective inhibition of SH3 domains with dirhodium metalloinhibitors” (Chemical Science, 2015)", "key": {"[1]": {"molecular_target": "T1, Full-length Lyn kinase (GST-tagged Lyn B) (Homo sapiens, UniProt P07948)", "T1 construct": "Full-length Lyn kinase (74 nM) was treated with substrate peptide and ATP; purchased Promega", "T1 sequence (P07948 1-491 isoform P07948-2)": "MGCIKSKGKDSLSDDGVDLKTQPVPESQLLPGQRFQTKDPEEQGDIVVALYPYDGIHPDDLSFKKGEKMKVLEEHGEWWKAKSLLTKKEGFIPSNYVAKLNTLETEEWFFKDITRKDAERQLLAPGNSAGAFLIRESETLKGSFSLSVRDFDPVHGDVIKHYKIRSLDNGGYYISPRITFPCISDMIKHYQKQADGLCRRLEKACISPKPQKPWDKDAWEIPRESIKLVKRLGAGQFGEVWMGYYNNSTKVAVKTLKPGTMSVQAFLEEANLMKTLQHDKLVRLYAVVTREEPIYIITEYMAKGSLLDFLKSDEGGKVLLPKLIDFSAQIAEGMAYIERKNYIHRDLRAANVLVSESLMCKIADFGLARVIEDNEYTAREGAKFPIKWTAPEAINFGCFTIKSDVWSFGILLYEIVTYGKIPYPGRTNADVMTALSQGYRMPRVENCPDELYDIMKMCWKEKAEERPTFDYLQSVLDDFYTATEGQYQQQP", "test": "Lyn kinase activation assay (ADP-Glo Kinase Assay)", "type": "biochemical", "details": "74 nM Lyn, 5 min", "experimental": "We examined phosphorylation of a peptide substrate at low enzyme concentration (0.074 μM) and short reaction time (t = 5 min) to minimize the alternative autophosphorylation activation pathway (Fig. 6). Kinase activation with traditional ligands has typically required high ligand concentrations (∼1 mM) to overcome the intramolecular nature of the SH3–kinase domain interaction.\nFig. 6 Activation of Lyn kinase activity by a metallopeptide, S2E^Rh, and the parent peptide, S2E. […] Full-length Lyn kinase (74 nM) was treated with substrate peptide and ATP. Kinase activity was measured after 5 min in an adaptation of reported methods.[5] See ESI ^† for details.\nAll chemical reagents were purchased from Sigma-Aldrich and were used without further purification. […]\nKinase assay. ATP turnover by Lyn was measured using the ADP-GloTM Kinase Assay (Promega) according to the manufacturer’s protocol. Briefly, final concentrations of 72 μM ATP, 74 nM Lyn (GST-tagged Lyn B), and 240 μM substrate peptide (all from Promega) were combined in buffer (40 mM Tris, 50 μM dithiothreitol, 2 mM MnCl2 and 0.1 mg/mL BSA at pH 7.5) with a solution of the desired treatment (or control) in the same buffer for a final reaction volume of 5 µL. The kinase reaction was allowed to proceed at room temp. for 5 min from addition of ATP before the start of the ADP-Glo protocol halted the reaction. Chemiluminescence data were acquired on a Tecan Infinite M1000 microplate reader in white 384 well low volume plates (Corning Costar 3674) with an integration time of 250 ms per well. […]"}, "[2]": {"molecular_target": "Fyn SH3 domain", "design": "method as in PMID 22621321", "details": "Fyn SH3, ITC; previously reported ref 52; cited from earlier work"}}, "note": "pKd: −log10 of the molar value.", "data": [{"substance": "AcVELARRPLPPLPN-NH2 [S2E^Rh]", "values": [{"measurement": "concentration above which slight activation is seen", "setting": "[1]", "value": "above 100 μM"}, {"measurement": "concentration at which complete activation response was achieved", "setting": "[1]", "value": 630, "unit": "nM"}, {"measurement": "concentration giving strong Lyn activation", "setting": "[1]", "value": 200, "unit": "nM"}, {"measurement": "pKd", "setting": "[2]", "value": 6.11}]}]}
